In patent publication US7601687B2, “Mechanism for identifying drugs for the treatment of type II diabetes” (BioCrine AB, priority 2006, dated 2009):

Tests used:
[1] = tested on: βGK mRNA; test: Endogenous βGK mRNA levels in isolated islets of wild type and βIRKO mice; type: cell-based, mouse; details: 16.7 mM glucose or 5 mU insulin/ml
Method: (§1) RNA was prepared 60 min after start of stimulation. Amounts of insulin, βGK and β-actln mRNA were quantified by comparative RT-PCR. […] Data are shown as mean values ± S.E. (n=3). (B-D) On-line monitoring of βGK promoter-driven GFP expression (white bars) and insulin promoter-driven DsRed expression (black bars) in co-transfected HIT cells (B,C) or islet cells (B,D).
(§2) Insulin-producing HIT-T15 cells were obtained from ATCC. HIT cells were reported to show glucose responsiveness at subphysiological concentrations between 0.1 and 2 mM (Sharma et al., 1995). HIT cells were grown in RPMI 1640 medium supplemented with 100 units/ml penicillin, 100 μg/ml streptomycin, 2 mM glutamine and 10% fetal calf serum at 5% CO2 and 37° C. Pancreatic islets were isolated from normally fed male Wistar rats and from mice by collagenase digestion. […]
(§3) RNA Analysis Levels of βGK mRNA were analyzed by RNase-protection assays and comparative RT-PCR. […] Quantification of the protected complexes was performed by phosphorimaging. […] Levels of μGK mRNA were analyzed by RT-PCR using primers 5′-[…]-3′(SEQ ID NO: 1) and 5′-[…]-3′(SEQ ID NO: 2) for characterizing μGK mRNA in HIT cells and primers 5′-[…]-3′(SEQ ID NO: 3) and 5′-[…]-3′(SEQ ID NO: 4) for μGK mRNA in rat and mouse pancreatic islets and islet cells. Levels of μ-actin mRNA were analyzed by RT-PCR using primers 5′-[…]-3′(SEQ ID NO: 5) and 5′-[…]-3′(SEQ ID NO: 6). […]

[2] = tested on: insulin mRNA; test: Endogenous insulin mRNA levels in isolated islets of wild type and βIRKO mice; type: cell-based, mouse; details: 16.7 mM glucose or 5 mU insulin/ml
Method: as §1, §2, §3

## insulin
[1]; islets from βIRKO mice
  endogenous βGK mRNA levels upon stimulation: no increase
[1]; islets of wild type mice
  endogenous βGK mRNA levels upon stimulation: increase
[2]; islets from βIRKO mice
  endogenous insulin mRNA levels upon stimulation: no increase
[2]; islets of wild type mice
  endogenous insulin mRNA levels upon stimulation: increase
